The results in this text go back to ChEMBL document CHEMBL6177977, “Discovery of a Potent, Selective, and Brain-Penetrant Checkpoint Kinase 1 Inhibitor, BEN-28010, for the Treatment of Glioblastoma” (J Med Chem, 2025).

Data set [1] addresses Serine/threonine-protein kinase Chk2 (Homo sapiens, UniProt O96017). Put plainly: biochemical.
Description: Inhibition of N-terminal GST-fused human full length CHK2 (1 to 543 residues) expressed in baculovirus-infected Sf21 cells using STK1 S1 as substrate preincubated for 30 mins in presence of ATP followed by MgCl2 addition and measured after 60 mins by TR-FRET assay
Data set [2] deals with T1, Serine/threonine-protein kinase Chk1 (Homo sapiens, UniProt O14757).
T1 sequence (O14757 whole entry): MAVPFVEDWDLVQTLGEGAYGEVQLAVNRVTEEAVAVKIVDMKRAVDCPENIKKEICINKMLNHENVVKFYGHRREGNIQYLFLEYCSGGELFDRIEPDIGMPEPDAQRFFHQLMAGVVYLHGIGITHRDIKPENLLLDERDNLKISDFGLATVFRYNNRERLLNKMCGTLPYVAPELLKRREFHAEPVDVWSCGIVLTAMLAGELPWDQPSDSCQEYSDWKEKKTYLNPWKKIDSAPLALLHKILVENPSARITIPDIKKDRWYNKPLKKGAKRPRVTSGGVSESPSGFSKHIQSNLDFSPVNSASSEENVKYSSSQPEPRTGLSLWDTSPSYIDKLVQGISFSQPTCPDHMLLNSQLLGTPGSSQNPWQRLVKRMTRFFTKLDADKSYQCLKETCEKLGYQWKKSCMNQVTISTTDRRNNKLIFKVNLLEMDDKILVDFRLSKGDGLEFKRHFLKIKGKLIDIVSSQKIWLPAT
Put plainly: Inhibition of N-terminal GST-fused human full length CHK1 (1 to 476 residues) expressed in baculovirus-infected Sf21 cells using STK1 S1 as substrate preincubated for 30 mins in presence of ATP followed by MgCl2 addition and measured after 60 mins by TR-FRET assay. In general terms: In TR-FRET formats the signal depends on donor and acceptor labels being close together.

Data set [3] has as its system GBM. Put plainly: Antitumor activity against human patient-derived GBM cells implanted in orthotopic NOG mouse model assessed as lifespan of animal's survival at 30 mg/kg, po qd for 28 days (reference value: 25.5 days). The format is functional. The following applies: time 28 day.
The subject of data set [4] is GBM. Put plainly: Antitumor activity against human patient-derived GBM cells implanted in orthotopic NOG mouse model assessed as lifespan of animal's survival at 50 mg/kg, po qd with dosing schedule of 3 days on and 4 days off for 28 days (reference value: 25.5 days). The following applies: time 28 day. The format is functional.
In data set [5] the target is Sodium channel protein type 5 subunit alpha (Homo sapiens, UniProt Q14524). Put plainly: Inhibition of human Nav1.5 transfected in CHO cells by automated electrophysiological analysis. The format is cell-based.
The target in data set [6] is Voltage-dependent L-type calcium channel subunit alpha-1C (Homo sapiens, UniProt Q13936). Put plainly: Inhibition of human Cav1.2 transfected in CHO cells by automated electrophysiological analysis. The format is cell-based.
Sequence of Voltage-dependent L-type calcium channel subunit alpha-1C (Q13936 whole entry): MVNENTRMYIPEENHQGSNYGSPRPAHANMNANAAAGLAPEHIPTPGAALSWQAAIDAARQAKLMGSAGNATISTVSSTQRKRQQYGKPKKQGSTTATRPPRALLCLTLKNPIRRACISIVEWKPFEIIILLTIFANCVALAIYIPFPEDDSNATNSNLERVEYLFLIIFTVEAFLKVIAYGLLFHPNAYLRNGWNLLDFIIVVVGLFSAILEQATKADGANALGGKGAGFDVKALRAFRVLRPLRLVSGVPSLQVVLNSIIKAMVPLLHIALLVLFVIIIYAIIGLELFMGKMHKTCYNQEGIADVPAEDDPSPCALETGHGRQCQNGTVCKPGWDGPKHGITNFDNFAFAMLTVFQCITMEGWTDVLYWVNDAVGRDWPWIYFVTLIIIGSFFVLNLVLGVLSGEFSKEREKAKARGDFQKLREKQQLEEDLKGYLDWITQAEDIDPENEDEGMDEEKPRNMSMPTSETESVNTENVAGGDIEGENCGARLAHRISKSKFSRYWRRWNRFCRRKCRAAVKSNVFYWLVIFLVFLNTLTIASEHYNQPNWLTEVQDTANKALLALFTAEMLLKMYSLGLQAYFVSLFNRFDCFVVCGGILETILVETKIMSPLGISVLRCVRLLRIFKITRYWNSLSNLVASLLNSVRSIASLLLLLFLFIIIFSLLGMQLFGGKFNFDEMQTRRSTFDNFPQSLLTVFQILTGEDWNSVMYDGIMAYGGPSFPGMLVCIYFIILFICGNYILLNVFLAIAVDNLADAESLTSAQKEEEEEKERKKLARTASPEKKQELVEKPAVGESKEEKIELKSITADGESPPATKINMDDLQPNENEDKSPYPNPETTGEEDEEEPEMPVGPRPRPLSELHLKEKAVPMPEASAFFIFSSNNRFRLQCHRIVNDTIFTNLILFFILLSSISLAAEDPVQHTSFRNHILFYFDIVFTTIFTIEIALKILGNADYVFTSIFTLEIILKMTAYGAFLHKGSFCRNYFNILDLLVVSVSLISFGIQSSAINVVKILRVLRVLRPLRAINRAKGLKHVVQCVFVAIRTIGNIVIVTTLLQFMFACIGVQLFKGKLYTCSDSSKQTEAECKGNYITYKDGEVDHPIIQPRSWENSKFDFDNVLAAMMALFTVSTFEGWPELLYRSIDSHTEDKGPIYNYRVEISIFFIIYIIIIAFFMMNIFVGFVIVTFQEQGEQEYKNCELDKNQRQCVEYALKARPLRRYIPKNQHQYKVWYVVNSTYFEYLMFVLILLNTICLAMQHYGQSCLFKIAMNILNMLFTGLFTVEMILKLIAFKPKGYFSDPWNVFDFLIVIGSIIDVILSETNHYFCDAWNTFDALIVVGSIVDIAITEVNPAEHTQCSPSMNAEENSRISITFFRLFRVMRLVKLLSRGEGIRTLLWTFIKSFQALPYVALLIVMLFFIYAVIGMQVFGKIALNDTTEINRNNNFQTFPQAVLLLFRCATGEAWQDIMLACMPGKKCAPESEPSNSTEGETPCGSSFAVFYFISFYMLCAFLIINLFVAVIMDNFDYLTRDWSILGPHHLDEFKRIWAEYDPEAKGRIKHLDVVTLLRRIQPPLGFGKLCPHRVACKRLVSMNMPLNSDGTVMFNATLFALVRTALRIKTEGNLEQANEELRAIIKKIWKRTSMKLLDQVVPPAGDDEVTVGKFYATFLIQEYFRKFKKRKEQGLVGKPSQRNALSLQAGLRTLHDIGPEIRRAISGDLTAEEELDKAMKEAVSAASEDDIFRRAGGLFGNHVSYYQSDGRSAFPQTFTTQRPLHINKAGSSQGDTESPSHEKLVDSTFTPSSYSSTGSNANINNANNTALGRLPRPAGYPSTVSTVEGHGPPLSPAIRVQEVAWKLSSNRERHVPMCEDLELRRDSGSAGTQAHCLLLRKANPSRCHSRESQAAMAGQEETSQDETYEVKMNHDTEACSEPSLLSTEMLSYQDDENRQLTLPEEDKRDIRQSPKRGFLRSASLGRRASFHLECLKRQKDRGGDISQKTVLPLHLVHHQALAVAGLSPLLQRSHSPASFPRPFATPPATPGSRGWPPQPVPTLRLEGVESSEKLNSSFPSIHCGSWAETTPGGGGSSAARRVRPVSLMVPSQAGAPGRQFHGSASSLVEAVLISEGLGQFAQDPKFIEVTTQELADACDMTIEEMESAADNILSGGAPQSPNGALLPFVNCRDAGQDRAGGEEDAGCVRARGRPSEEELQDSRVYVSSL
Data set [7] deals with T1, Serine/threonine-protein kinase Chk1. Put plainly: Inhibition of CHK1 in neocarzinostatin-stimulated human SW620 cells assessed as inhibition of CHK1 phosphorylation at Ser296 residue incubated for 2 hrs by sandwich ELISA. The format is cell-based.
Data set [8] deals with GBM. Put plainly: Antitumor activity against human patient-derived GBM cells implanted in orthotopic NOG mouse model assessed as lifespan of animal's survival at 100 mg/kg, po qd with dosing schedule of 2 days on and 11 days off for 28 days (reference value: 25.5 days). The format is functional. The following applies: time 28 day.
Data set [9] in a line: Plasma concentration required to achieve 50% in vivo inhibition of CHK1 assessed as accumulation of CHK1 phosphorylation at Ser345 residue in tumors in po dosed GBM LN-229 CDX NOD/SCID mouse model. The format is organism-based. The following applies: LN-229, Plasma.
Data set [10] concerns MDR1. Put plainly: in vitro. To be noted: dog, MDCK-MDR1.
Description: Efflux ratio of apparent permeability across basal to apical side over apical to basal side in dog MDCK-MDR1 cells at 1 uM measured after 1 day by LC-MS/MS analysis
The subject of data set [11] is BCRP. Put plainly: in vitro. The following applies: dog.
Description: Efflux ratio of apparent permeability across basal to apical side over apical to basal side in dog MDCK-BCRP cells at 1 uM measured after 1 day by LC-MS/MS analysis
Data set [12] has as its system GBM. Put plainly: Antitumor activity against human patient-derived GBM cells implanted in orthotopic NOG mouse model assessed as lifespan of animal's survival at 20 mg/kg, ip qd with dosing schedule of 5 days on and 2 days off for 28 days (reference value: 25.5 days). The format is functional. To be noted: time 28 day.
Data set [13] is described as follows: in vivo. To be noted: Sprague-Dawley, rat, brain and plasma, iv, 1 mg/kg.
Description: Unbound brain-to-plasma concentration ratio in Sprague-Dawley rat at 1 mg/kg, iv measured after 15 mins by rapid equilibrium dialysis method
In data set [14] the target is Voltage-gated inwardly rectifying potassium channel KCNH2 (Homo sapiens, UniProt Q12809). Put plainly: Inhibition of hERG expressed in HEK cells by electrophysiology. The format is toxicity, cell-based.
Sequence of Voltage-gated inwardly rectifying potassium channel KCNH2 (Q12809 whole entry): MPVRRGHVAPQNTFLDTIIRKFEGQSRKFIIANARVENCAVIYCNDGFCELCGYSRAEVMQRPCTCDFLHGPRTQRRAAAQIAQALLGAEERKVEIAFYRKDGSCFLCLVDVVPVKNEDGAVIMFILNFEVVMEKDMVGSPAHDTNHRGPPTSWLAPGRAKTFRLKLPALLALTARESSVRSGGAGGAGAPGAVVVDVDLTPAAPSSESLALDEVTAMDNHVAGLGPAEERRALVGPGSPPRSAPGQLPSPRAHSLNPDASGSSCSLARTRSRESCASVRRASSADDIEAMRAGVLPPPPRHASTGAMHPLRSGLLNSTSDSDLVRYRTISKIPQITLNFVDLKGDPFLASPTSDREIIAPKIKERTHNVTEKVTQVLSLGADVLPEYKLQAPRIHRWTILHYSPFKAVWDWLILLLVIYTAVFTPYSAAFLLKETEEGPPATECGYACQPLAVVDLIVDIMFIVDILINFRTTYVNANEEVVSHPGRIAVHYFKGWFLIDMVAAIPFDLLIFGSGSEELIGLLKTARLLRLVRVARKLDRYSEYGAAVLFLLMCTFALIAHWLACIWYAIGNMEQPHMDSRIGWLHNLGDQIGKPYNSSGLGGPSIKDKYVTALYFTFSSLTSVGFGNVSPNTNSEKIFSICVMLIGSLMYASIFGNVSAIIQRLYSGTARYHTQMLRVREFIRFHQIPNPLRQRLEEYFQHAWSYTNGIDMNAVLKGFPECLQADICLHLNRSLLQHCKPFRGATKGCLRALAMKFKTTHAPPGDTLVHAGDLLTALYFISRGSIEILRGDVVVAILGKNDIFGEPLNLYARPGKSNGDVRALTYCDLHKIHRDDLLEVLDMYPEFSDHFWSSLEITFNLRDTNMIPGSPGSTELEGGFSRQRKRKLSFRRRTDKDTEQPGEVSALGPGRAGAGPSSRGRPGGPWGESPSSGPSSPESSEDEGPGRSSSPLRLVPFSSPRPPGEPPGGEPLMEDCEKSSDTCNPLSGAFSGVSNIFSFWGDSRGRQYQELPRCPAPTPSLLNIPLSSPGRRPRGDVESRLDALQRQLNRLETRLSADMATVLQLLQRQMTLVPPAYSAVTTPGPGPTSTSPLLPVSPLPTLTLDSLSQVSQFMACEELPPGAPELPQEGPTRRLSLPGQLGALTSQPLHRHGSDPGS
Data set [15] in a line: Intrinsic clearance in human liver microsomes measured per mg protein. The format is ADME, Microsome. The following applies: read-out: CLH. (In general: Liver microsomes are a subcellular fraction often used to study metabolism.)
Data set [16] is described as follows: in vitro. To be noted: dog, MDCK.
Description: Apparent permeability of the compound across apical to basolateral side in dog MDCK cells at 1 uM measured after 1 day by LC-MS/MS analysis
Data set [17] can be described thus: Intrinsic clearance in rat liver microsomes measured per mg protein. The format is ADME, Microsome. The following applies: read-out: CLH.
Data set [18] in a line: Kinetic aqueous solubility of the compound at 250 uM measured after 2 hrs by RP-UPLC-DAD analysis. The format is physicochemical. To be noted: buffer, read-out: Kinetic_solubility.
For data set [19], the target named is T1, Serine/threonine-protein kinase Chk1. Put plainly: Inhibition of human full length recombinant CHK1 using KKKVSRSGLYRSPSMPENLNRPR as substrate in presence of [gamma-33P]ATP incubated for 40 mins by radiometric assay.
Data set [20] in a line: Apparent permeability of the compound in dog MDCK-MDR1 cells at 1 uM measured after 1 day by LC-MS/MS analysis. The format is ADME, cell-based, Canis lupus familiaris.

The IC50 is the midpoint of a concentration-inhibition curve. In general, efflux ratio refers to the permeability from basolateral to apical divided by that in the opposite direction, in the common usage. A word on the Papp A→B: it is the apparent permeability from the apical to the basolateral side of a cell layer. By Papp is commonly meant the rate of passage across a membrane or cell layer, normalised by area and donor concentration.

Converted amounts (≈) assume the structure as drawn.

Sequence of Serine/threonine-protein kinase Chk2 (O96017 whole entry): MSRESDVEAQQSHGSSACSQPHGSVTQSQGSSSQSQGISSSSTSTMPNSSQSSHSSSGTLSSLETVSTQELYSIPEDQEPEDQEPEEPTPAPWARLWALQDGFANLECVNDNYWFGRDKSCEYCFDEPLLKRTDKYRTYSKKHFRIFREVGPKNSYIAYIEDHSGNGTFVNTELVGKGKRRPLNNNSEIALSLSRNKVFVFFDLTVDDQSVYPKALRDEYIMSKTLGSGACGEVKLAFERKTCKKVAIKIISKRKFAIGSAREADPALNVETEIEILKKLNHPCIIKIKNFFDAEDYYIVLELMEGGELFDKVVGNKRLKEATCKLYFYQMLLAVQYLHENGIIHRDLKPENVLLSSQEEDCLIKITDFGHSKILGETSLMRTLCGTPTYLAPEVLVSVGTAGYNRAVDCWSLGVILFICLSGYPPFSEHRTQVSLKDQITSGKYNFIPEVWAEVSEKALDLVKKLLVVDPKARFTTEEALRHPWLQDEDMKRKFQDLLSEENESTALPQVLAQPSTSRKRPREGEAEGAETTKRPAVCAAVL

As for `CN(C)[C@H]1CN(c2ccc(-n3cnc(Nc4cnc(C#N)cn4)c3)cc2)C[C@@H]1F`, the IC50 in data set [1] stood at 1310 nM; in data set [2] it was 5 nM.

Turning to `CN(C)[C@@H]1CCN(c2ccc(-n3cnc(Nc4cnc(C#N)cn4)c3)cc2)C1`, the Survival worked out at 34 days in [3], 39.5 days in data set [4] and 50 days in data set [8]. Further, the IC50 was > 30000 nM in data set [5]; > 30000 nM in data set [6]; 450 nM in [7]; 4 nM in data set [2]; 209 nM in data set [9].

Take `CN(C)[C@H]1CN(c2ccc(-n3cnc(Nc4cnc(C#N)cn4)c3)cc2)C[C@H]1F`: the values for the IC50 in [1] and in data set [2] were 3190 nM and 14 nM, respectively.

Consider `CN1CC2(CCN(c3nc(Nc4cn(-c5ccccn5)cn4)cnc3C#N)C2)C1`, for which the efflux ratio at 24 h, 1 µM in data set [10] and in data set [11] was > 50 in each case. The IC50 in data set [2] worked out at 2 nM.

For `CN1CC[C@@H]2CN(c3ccc(-n4cnc(Nc5cnc(C#N)cn5)c4)cc3)C[C@@H]21`, the values for the IC50 in data set [1] and in data set [2] were > 10000 nM and 17 nM, respectively. For the same molecule, the values for the efflux ratio at 24 h, 1 µM in data set [10] and in data set [11] were 2.5 and 2.7, respectively.

For the molecule `C[C@@H]1CN(c2ccc(-n3cnc(Nc4cnc(C#N)cn4)c3)cc2)C[C@@H]1N(C)C`, the IC50 was > 10000 nM in data set [1] and 16 nM in data set [2].

As to `CN1CC2(C1)CN(c1ccc(-n3cnc(Nc4cnc(C#N)cn4)c3)cc1)C2`, the IC50 in data set [2] was 31 nM.

`C[C@H]1CN(c2ccc(-n3cnc(Nc4cnc(C#N)cn4)c3)cc2)C[C@@H]1N(C)C`: the figures for the IC50 in [1] and in data set [2] were 2720 nM and 4 nM, respectively.

Consider `Cn1nnc2c(C(N)=O)ncn2c1=O` [TEMOZOLOMIDE], for which the Survival in [12] came out at 43 days.

Take `N#Cc1cnc(Nc2cn(-c3ccc(N4CCN(CCF)CC4)cc3)cn2)cn1`: the values for the IC50 in [1] and in [2] were > 10000 nM and 40 nM, respectively. Further, the values for the efflux ratio at 24 h, 1 µM in data set [10] and in [11] were < 1 and 1.4, respectively.

For the molecule `Cc1cc(N2CCN(C)CC2)ccc1-n1cnc(Nc2cnc(C#N)cn2)c1`, the IC50 in [2] amounted to 464 nM.

As to `CN1CC2(CCN(c3ccc(-n4cnc(Nc5cnc(C#N)cn5)c4)cc3)C2)C1`, the figures for the IC50 in data set [1] and in [2] were > 10000 nM and 12 nM, respectively.

Regarding `CCN1CCN(c2ccc(-n3cnc(Nc4cnc(C#N)cn4)c3)cc2)CC1`, the IC50 in data set [2] was found to be 21 nM.

With `CN(C)C1CN(c2ccc(-n3cnc(Nc4cnc(C#N)cn4)c3)cc2)C1`, the IC50 in [1] was > 10000 nM; in data set [2], 9 nM.

As to `CN1CCN(c2ccc(-n3cnc(Nc4cnc(C#N)cn4)c3)cc2)CC1`, the IC50 in [1] is > 10000 nM; in [14], > 30000 nM; in [2] it was 15 nM. In addition, the figures for the efflux ratio at 24 h, 1 µM in data set [10] and in [11] were 1.7 and 3.7, respectively. The Kp uu at […] in data set [13] was determined as 0.4. For the same molecule, the figures for the microsomal CLint in [15] and in data set [17] were < 14 µL/min/mg and 47 µL/min/mg, respectively. Further, in data set [16], the apparent permeability from apical to basolateral (Papp A→B) at 24 h, 1 µM was 58 ×10⁻⁶ cm/s. Also, in data set [18], the solubility kinetic at 2 h, 250 µM came out at 59 µM (≈ 21.3 µg/mL).

As to `N#Cc1cnc(Nc2cn(-c3ccccc3)cn2)cn1`, in [19], the IC50 came out at 549 nM. Also, the efflux ratio at 24 h, 1 µM in [10] is 0.6; in data set [11], 1.

Turning to `CN(C)[C@H]1CCN(c2ccc(-n3cnc(Nc4cnc(C#N)cn4)c3)cc2)C1`, the IC50 in [2] amounted to 68 nM.

Turning to `CN(C)[C@]1(C)CCN(c2ccc(-n3cnc(Nc4cnc(C#N)cn4)c3)cc2)C1`, the IC50 in [1] is 1100 nM; in [2], 2 nM. The efflux ratio at 24 h, 1 µM came out at 3.6 in [10] and 1.5 in data set [11].

`N#Cc1cnc(Nc2cn(C(F)F)cn2)cn1`: in data set [20], the Papp at 24 h, 1 µM came out at 66 ×10⁻⁶ cm/s. The IC50 in data set [19] was determined as 3000 nM. For the same molecule, in [10], the efflux ratio at 24 h, 1 µM was found to be 0.9.

Regarding `CCN(C)[C@@H]1CCN(c2ccc(-n3cnc(Nc4cnc(C#N)cn4)c3)cc2)C1`, the figures for the IC50 in data set [1] and in data set [2] were 2070 nM and 4 nM, respectively.

Regarding `CN1CC2(CCN(c3nc(Nc4cn(C(F)F)cn4)cnc3C#N)C2)C1`, the efflux ratio at 24 h, 1 µM in data set [10] was 34; in data set [11] it was > 50. Also, the IC50 in [2] was 14 nM.

Regarding `CN(C)C1CCN(c2ccc(-n3cnc(Nc4cnc(C#N)cn4)c3)cc2)CC1`, the IC50 in data set [1] was 8760 nM; in data set [2], 11 nM. Moreover, the efflux ratio at 24 h, 1 µM in data set [10] came out at 26; in data set [11], 23.
